The text below walks through data of PubChem BioAssay AID2305 (GlaxoSmithKline (GSK), 2010).

The assay has as its system P. falciparum 3D7 growth, pLDH absorbance. Nature of the assay: blood-stage malaria parasite growth potency – strain 3D7, dose response (AID 2305).
Broadly, the IC50 is the midpoint of a concentration-inhibition curve. High values mean lower potency, low ones higher potency. Consider `COc1ccc(Nc2nc(NCc3cccc(NS(C)(=O)=O)c3)cc(-c3ccc(OC)cc3)n2)cc1`, for which the IC50 was determined as 1.22 µM. Take `O=C(CSc1n[nH]c(-c2ccccc2Br)n1)c1c[nH]c2ccccc12`: the IC50 amounted to 0.98 µM. The result for `Cc1ccc(NC(=O)C(C)Sc2n[nH]c(-c3ccccc3Br)n2)cc1` (stereo not given) reads 1.09 µM; that for `O=C(Nc1ccc(-c2oc(C(=O)NCCc3cccc(Cl)c3)cc2-c2ccncc2)cc1)Nc1cccc(Cl)c1`, 0.72 µM. In the case of `C[C@@H](N)C#Cc1cc2c(Nc3ccc(OCc4cccc(F)c4)c(Cl)c3)ncnc2s1`, the IC50 was 1.06 µM. As to `CN1CCC(Oc2ccc(CN3CC[C@H](NC(=O)c4ccc(Cl)c(Cl)c4)C3)cc2Cl)C1` (stereo not given in full), the IC50 is 0.88 µM.

On to `Cc1cc(OCCCN2CCC(NS(=O)(=O)c3ccc(Cl)c(Cl)c3)CC2)c2ccccc2n1`, for which the IC50 was found to be 0.9 µM. With `CCc1ccc2nc(-c3ccc(F)cc3)nc(SCC(=O)Nc3sc(C)c(C)c3C#N)c2c1`, the IC50 was 0.64 µM. In the case of `O=S(=O)(c1cc(Cl)ccc1Cl)N1CCCCC(c2ccc(C(F)(F)F)cc2)=N1`, the IC50 is 1 µM. On to `O=C(NCCc1ccc(Cl)c(Cl)c1)c1ccc(CNC(=O)c2ccc(O)c(-c3ccc(Cl)c(Cl)c3)c2)cc1`, for which the IC50 turned out to be 0.81 µM. `CC(C)(C)NC(=O)C(c1ccc(F)cc1)N(C(=O)c1ccc(CN2CCOCC2)o1)c1ccc(C2CCCCC2)cc1` (stereo not given): the IC50 was 0.92 µM. In the case of `CN1CCN(c2nc(NCCNc3ccc([N+](=O)[O-])cc3)c3ccccc3n2)CC1`, the IC50 is 1.32 µM. The same measure for `COc1ccccc1C(=O)Nc1ccc(Nc2nc(C)cc(N(C)C)n2)cc1`: 0.79 µM. Compound `COc1cc2nc(N(C)C3CCN(Cc4ccccc4)CC3)nc(N)c2cc1OC` yielded an IC50 of 0.33 µM. The same measure for `NC(=O)c1cccc(CNCc2ccc(-c3cccc(-c4nc5ccccc5[nH]4)c3)cc2)c1`: 0.59 µM. The result for `O=C(/C=C/c1ccc(Cl)c(Cl)c1)NCCCCCN1CCC(c2[nH]nc(-c3ccccc3)c2Br)CC1` reads 0.72 µM; that for `O=C(O)CCc1ccc(-c2c[nH]c3ncc(-c4ccc5ncccc5c4)cc23)cc1`, 0.3 µM; that for `C#CCNCc1ccc(-c2ccc(-c3nc4ccc(C(F)(F)F)cc4[nH]3)s2)cc1`, 0.74 µM. The result for `Nc1nc(N)c2cc(NS(=O)(=O)c3ccc(-c4ccccc4)cc3)ccc2n1` reads 0.7 µM; that for `CCc1cc2c(=O)c(-c3nc(C)cs3)c(N)oc2c(CN2CCCCC2)c1O`, 0.66 µM; that for `Cc1ccc2cc(NCCCCCCCCON3C(N)=NC(N)=NC34CCCCC4)ccc2n1`, 0.16 µM. In turn, `CCN1CCCC(Nc2ccnc3cc4ccccc4cc23)C1` (stereo not given) had an IC50 of 0.1 µM. The compound `CC(CN1CCN(C)CC1)C(=O)Nc1cccc(-c2ccc(-c3nc4ccc(F)cc4[nH]3)cc2)c1` (stereo not given) came in with an IC50 of 0.81 µM.

The compound `CSC1=NC2(CC(c3cccc(C)c3)c3cc(Cl)c(O)cc3O2)CC(C)(C)N1` (stereo not given) displayed an IC50 of 0.88 µM. As for `Cc1cc2[nH]c(-c3ccc(C(=O)NCCCN4CCN(c5cccc(Cl)c5)CC4)cc3F)nc2cc1Cl`, the IC50 was 0.48 µM. The result for `CS(=O)(=O)n1c(CN2CCN(c3ncc(C(F)(F)F)cc3Cl)CC2)nc2ccccc21` reads 1.06 µM. `COc1ccc(Nc2nc(N3CCCC3)c3ccccc3n2)cc1` came in with an IC50 of 0.75 µM. `COc1cc2nc(N3CCN(c4nc(N)c5cc(OC)c(OC)cc5n4)CC3)nc(N)c2cc1OC`: the IC50 is 0.15 µM.

The compound `CS(=O)(=O)CCNCc1nc(-c2ccc3ncnc(Nc4ccc(OCc5ccccc5)c(Cl)c4)c3c2)cs1` returned a concentration for half-maximal inhibition (IC50) of 0.8 µM. `O=C(Nc1cccc(-c2cccc(-c3nc4ccc(C(F)(F)F)cc4[nH]3)c2)c1)c1ccncc1` gave an IC50 of 0.2 µM. `COc1cccc(Nc2nc(C)cc(NCc3ccc(-n4ccnc4)cc3)n2)c1` returned an IC50 of 0.96 µM. `CCCCCc1cnc2nc(N)nc(N)c2c1` had an IC50 of 1.23 µM. In turn, `C(=NNc1nc2ccccc2[nH]1)c1ccccc1OCc1ccccc1` registered an IC50 of 0.26 µM. For `CC(=O)C1(c2ccccc2)CCN(CCC2(c3ccc(Cl)c(Cl)c3)CN(C(=O)Nc3cc(F)cc(F)c3)CCO2)CC1` (stereo not given), the IC50 was 1.48 µM. For the compound `Cc1cc(NCCC(=O)Nc2ccccc2)nc(NCCc2cccnc2)n1`, the IC50 worked out at 1.24 µM. The same measure for `CC1CCC2(CC1)N=C(N)N=C(N)N2OCCCCCCCCO` (stereo not given): 0.15 µM; for `Cn1ccc2c3c(N)nc(N)nc3ccc21`: 0.9 µM. The same measure for `COc1ccc2ncc(F)c([C@@H](O)CN3CCC(NCc4cc5c(cn4)OCCO5)CC3)c2c1`: 0.14 µM; for `CCCC(C)c1ccc(N2C(N)=NC(N)=NC2(C)C)cc1` (stereo not given): 0.01 µM. As to `CN1CCN(CCCCCCNc2c3ccccc3nc3ccccc23)CC1`, the IC50 was found to be 0.72 µM. The result for `Nc1c(Cl)cc(C(O)CNCCCCCCOCCc2ccc(O)cc2)cc1Cl` (stereo not given) reads 0.73 µM; that for `CC(C)C[C@H](NC(=O)[C@H](Cc1ccccc1)NC(=O)CCN1C(=O)COc2ccc(C(=O)O)cc21)C(=O)NC(CC1CCCCC1)C(O)CC(=O)NCCCn1ccnc1` (stereo not given in full), 0.97 µM. The same measure for `CCCC(C)Nc1nc(C)cc(N[C@@H](CC(C)C)C(=O)NCCc2ccccc2)n1` (stereo not given in full): 1.36 µM; for `CC[C@H]1CN(CCCC(=O)c2ccccc2)CC[C@H]1CCCc1ccnc2ccc(OC(=O)c3ccccc3)cc12`: 0.83 µM; for `O=C(/C=C/c1ccc(Cl)c(Cl)c1)NC1CCC(CN2CC[C@H](c3c[nH]c4ccccc34)[C@@H](O)C2)CC1` (stereo not given in full): 0.72 µM. The same measure for `CCc1cn(CCOC)c2ccc(C(=O)N[C@@H](Cc3ccccc3)[C@H](O)CNC(C)(C)CCCC(C)C)cc12`: 0.57 µM; for `CCN1CCN(c2cc(C)c3cc(NC(=O)c4ccc(OC)c([N+](=O)[O-])c4)ccc3n2)CC1`: 0.55 µM; for `CN(C)C(CNC(=O)c1cc(-c2ccncc2)c(-c2ccc(Cl)c(O)c2)o1)c1ccccc1` (stereo not given): 0.84 µM.

Turning to `Cc1cccc2[nH]c(-c3cccc(-c4cccc(NC(=O)c5cn(C)c(=O)n5C)c4)c3)nc12`, the IC50 was determined as 0.5 µM. The compound `Cc1ccc2c(-c3ccc([N+](=O)[O-])o3)cc(C)nc2c1` displayed an IC50 of 0.04 µM. `c1ccc(Cn2nnnc2-c2cccc(Nc3ccnc4cc(-c5nccs5)ccc34)c2)cc1`: the IC50 was found to be 0.83 µM.

As for `Fc1ccc(NC(=S)NCCc2ccccc2)cc1`, the IC50 worked out at 0.78 µM. As for `C=CCc1c(C(=O)NCC23CC4CC(CC(C4)C2)C3)[nH]c2ccccc2c1=O`, the IC50 is 1.03 µM. The compound `Cc1cccc2[nH]c(-c3ccc(-c4cccc(NC(=O)CCc5cnc[nH]5)c4)s3)nc12` gave an IC50 of 0.84 µM. The result for `CC(C)(C)Nc1nc(Nc2cccc([N+](=O)[O-])c2)nc(-n2ccnc2)n1` reads 0.81 µM. The result for `Cc1ccc2nc(Cl)c3cc(C(=O)NCCCN4CCCC4)sc3c2c1` reads 1.14 µM. `O=[N+]([O-])c1cccc(-c2nc3ccc(C4=N[C@H]5CCCC[C@H]5N4)cc3[nH]2)c1` came in with an IC50 of 0.2 µM. `CCCCCCCCn1ccc(=N)cc1` returned an IC50 of 0.84 µM.

Turning to `COc1ccc(-c2ccc(S(=O)(=O)Nc3cc4c(cc3OC(C)C)CCN(C)CC4)cc2)cc1`, the IC50 came to 0.69 µM.

On to `CCOc1cc(Cc2cnc(N)nc2N)cc(OCC)c1OCC`, for which the IC50 is 0.28 µM. Take `Cc1cc(NN=Cc2ccccc2[N+](=O)[O-])c2cc(F)ccc2n1`: the IC50 came out at 0.66 µM. The compound `Cc1[nH]c(C)c(-c2ccc(Sc3ccc(Cl)cc3)cc2)c(=O)c1Br` returned an IC50 of 0.14 µM. The same measure for `O=C(/C=C/c1ccc(Cl)c(Cl)c1)NCCCCCCN1CCN(C(=O)Nc2ccc(Cl)c(C(F)(F)F)c2)CC1`: 0.53 µM; for `Nc1c2c(nc3ccc(NC(=O)Cc4ccccc4)cc13)CCCC2`: 0.76 µM; for `COc1cc(NC(=O)c2c(-c3c(F)cccc3Cl)noc2C)c(OC)cc1Cl`: 0.86 µM. For the compound `CC(C)[C@H](NC(=O)c1ccc(O)c(-c2ccc(Cl)c(Cl)c2)c1)C(=O)NCCN1CCCC1`, the IC50 was determined as 0.93 µM. On to `O=C(/C=C/c1ccc(Cl)c(Cl)c1)NCCCCCN1CCCC(C(=O)Nc2ccc(F)c(Cl)c2)C1` (stereo not given), for which the concentration for half-maximal inhibition (IC50) amounted to 0.9 µM. The result for `COc1ccc2c(=O)c3ccc(OC)cc3[nH]c2c1` reads 0.81 µM; that for `CC(C)CN(c1nc(C(=O)NNC(=O)[C@H](CC2CC2)NC(=O)c2cc3cc(OCCN(C)C)ccc3o2)cs1)C1CC1`, 1.03 µM. On to `Oc1ccc(CCNc2nc(NCc3ccccc3-c3ccccc3)nc(N3CCCNCC3)n2)cc1`, for which the IC50 stood at 0.88 µM. `Cc1cccc2[nH]c(-c3ccc(-c4ccc(NC(=O)Nc5cccc(C#N)c5)cc4)s3)nc12` showed an IC50 of 0.12 µM. For the compound `CCNc1cc(C(=O)N[C@@H](Cc2ccccc2)[C@H](O)CNC(C)(C)c2cccc(OC)c2)cc(N2CCCC2=O)c1`, the IC50 stood at 0.14 µM. With `Clc1ccc(-c2cnc3ccc(NCc4ccncc4)nn23)cc1`, the IC50 worked out at 0.89 µM.

In turn, `Cc1ccc(NS(=O)(=O)c2ccc(-c3ccccc3)cc2)c(Cn2cnc(N3CCCNCC3)cc2=O)c1` showed an IC50 of 0.86 µM. Compound `CC(=O)Nc1cccc(C(=O)Nc2ccc(-c3ccc(-c4nc5c(C)cccc5[nH]4)s3)cc2)c1` showed an IC50 of 1.74 µM. The same measure for `CN1CCC(N(C)C(=O)C=Cc2cn(-c3ccccc3)nc2-c2cc3ccccc3o2)CC1`: 1.34 µM; for `COc1ccc(CCn2c(=N)c(C(=O)NCc3cccnc3)cc3c(=O)n4ccccc4nc32)cc1`: 0.88 µM; for `O=C(/C=C/c1ccc(Cl)c(Cl)c1)NCCCCCN1CCC(NC(=O)Nc2ccc(C(F)(F)F)cc2)CC1`: 0.75 µM. Compound `COc1ccc(NC(=O)CCNc2cc(C)nc(Nc3ccccc3)n2)cc1` came in with an IC50 of 1.1 µM.

`CCC1=C[C@@H]2CN(C1)Cc1c([nH]c3ccccc13)[C@@](C(=O)OC)(c1cc3c(cc1OC)N(C)[C@H]1[C@@](O)(C(=O)OC)[C@H](O)[C@]4(CC)C=CCN5CC[C@]31[C@@H]54)C2` came in with an IC50 of 0.87 µM.

Regarding `OCC1CCN(Cc2ccc(-c3ccc(-c4nc5ccc(F)cc5[nH]4)s3)cc2)CC1`, the IC50 came to 0.85 µM. Consider `Cc1cc2nc(-c3ccc(/C=C/C(=O)NCc4ccc(Cl)c(Cl)c4)cc3)[nH]c2cc1C`, for which the IC50 is 0.82 µM. `CCC[C@@H]([C@@H](CC1CCCCC1)C(=O)N[C@H](C(=O)Nc1nccs1)[C@@H](C)OCc1ccccc1)N(O)C=O` showed an IC50 of 0.08 µM. For `C=C[C@H]1CN(CCCCCCC)CC[C@H]1CCN(C)c1ccnc2ccc(OC)cc12`, the IC50 was 0.45 µM. The compound `COC(=O)c1ccc(CC(C)NCC(O)c2cccc(Oc3cccc(C(F)(F)F)c3)c2)cc1` (stereo not given) gave an IC50 of 1.17 µM.
